“And” between values parts separate entries of the source, which are not always exact repeats. Equal entries are not always repeated.

This test has as its system HBV. Nature of the test: HBV DNA production and replication in 2.2.15 cell cultures. In kind it is cell-based, Hepatitis B virus (HBV). The settings on record: for INTRACELLULAR HBV DNA INTEG. / INTRACELLULAR HBV DNA MONO. / INTRACELLULAR HBV DNA RI: 24 hours following 10th day of treatment; for HBV DNA IN CULTURE MEDIUM DAY 0: day 0 of treatment. The protocol: 2'-CdG was tested at three concentrations (50 ng/ml, 500 ng/ml, and 5 ug/ml) against the HBV-producing, human liver cell line, 2.2.15 (Sells et al., J. Virol. 62:2836, 1989). A racemic (D,L) preparation, as well as the purified D and L isomers were tested. For these analyses compounds were tested in duplicate at all concentrations. Ara-AMP and ddG (2'3'-dideoxyguanosine) were used as HBV inhibitory control compounds. […] The nucleoside analog, ddG was used as an additional control compound since ddG has activity against duck hepatitis B virus in chronically infected Peking ducks (Lee et al., Antimicrob. Agents Chemother. 33:336, 1989) and 2'-CdG is also a deoxyguanosine analog.
2.2.15 cells were seeded in 6 well culture plates and grown to confluence over a 10 day period in medium with 5% FBS. Test compounds were then added daily for a continuous 10 day period in medium with 1% dialyzed FBS. […] Compounds were tested, in duplicate cultures, at 3 concentrations covering a 100-fold range. Culture medium (changed daily during the treatment period) was collected and stored for analysis of extracellular (virion) HBV DNA from days 0, 3, 6, and 10 of the treatment period. This allowed for an analysis of the level of HBV virion production during discrete 24 hour intervals and reduced the potential for the buildup of toxic metabolites derived from the test compounds. Treated cells were lysed following the 10th day of treatment for the analysis of intracellular HBV genomic forms. HBV DNA was analyzed in a quantitative manner for (i) overall levels (both extracellular and intracellular DNA) and (ii) the relative rate of HBV replication (intracellular DNA only).
HBV DNA levels were measured by comparison to known amounts of HBV DNA standards applied to every nitrocellulose filter (gel or slot blot) using an AMBIS Beta Scanner. Standard curves, generated by multiple analyses, were used to correlate CPM measurements with relative levels of target HBV DNA. The levels of HBV DNA in each of three classes of intracellular viral genomic forms were individually quantitated: integrated HBV DNA, episomal monomeric genomes and HBV DNA replication intermediates (RI). Integrated HBV DNA was used to normalize the relative amounts of DNA in each lane because the levels of this class of HBV DNA would be expected to remain constant on a per cell basis. The levels of the monomeric HBV genomes and RI were used as an indicator of the relative level of HBV replication.

In the case of `Nc1nc2c(ncn2[C@H]2C[C@@H](CO)[C@H](O)C2)c(=O)[nH]1` [L-2'-CdG, [1S,3R,4S-(1α,3β,4α)]-L-2-Amino-1,9-dihydro-9-[3-hydroxy-4-(hydroxymethyl)cyclopentyl]-6H-purin-6-one], the “anti-HBV activity (in words)” value (50 ng/ml to 5 ug/ml, 2.2.15 cells) is recorded as “did not exhibit any significant anti-HBV activity”. Moreover, under “50ng/ml, listed as L, 2-CdG”, the “INTRACELLULAR HBV DNA INTEG.” value is 1.3 PG/UG CELL DNA and 0.8 PG/UG CELL DNA; the “INTRACELLULAR HBV DNA MONO.” value is 1.4 PG/UG CELL DNA and 1.1 PG/UG CELL DNA; the “INTRACELLULAR HBV DNA RI” value is 90 PG/UG CELL DNA and 76 PG/UG CELL DNA; the “HBV DNA IN CULTURE MEDIUM DAY 0” value is 48 pg/mL and 67 pg/mL. Also, for the setting “50ng/ml, listed as L, 2-CdG”, the “HBV DNA IN CULTURE MEDIUM DAY 3” value was 47 pg/mL and 83 pg/mL; the “HBV DNA IN CULTURE MEDIUM DAY 6” value is 90 pg/mL and 63 pg/mL; the “HBV DNA IN CULTURE MEDIUM DAY 10” value was 90 pg/mL and 61 pg/mL. Also, the “INTRACELLULAR HBV DNA MONO.” value (500ng/ml) was 1.9 PG/UG CELL DNA. For the setting “500ng/ml, listed as L, 2-CdG”, the “INTRACELLULAR HBV DNA INTEG.” value was 1.4 PG/UG CELL DNA and 1.5 PG/UG CELL DNA; the “INTRACELLULAR HBV DNA RI” value was 82 PG/UG CELL DNA and 99 PG/UG CELL DNA; the “HBV DNA IN CULTURE MEDIUM DAY 0” value was 90 pg/mL and 110 pg/mL; the “HBV DNA IN CULTURE MEDIUM DAY 3” value was 63 pg/mL and 83 pg/mL. For the same compound, for the setting “500ng/ml, listed as L, 2-CdG”, the “HBV DNA IN CULTURE MEDIUM DAY 6” value was 78 pg/mL and 56 pg/mL; the “HBV DNA IN CULTURE MEDIUM DAY 10” value is 97 pg/mL and 91 pg/mL. Under “5 ug/ml, listed as L, 2-CdG”, the “INTRACELLULAR HBV DNA INTEG.” value was 1.5 PG/UG CELL DNA and 0.9 PG/UG CELL DNA; the “INTRACELLULAR HBV DNA MONO.” value is 2.0 PG/UG CELL DNA and 1.1 PG/UG CELL DNA; the “INTRACELLULAR HBV DNA RI” value was 97 PG/UG CELL DNA and 86 PG/UG CELL DNA; the “HBV DNA IN CULTURE MEDIUM DAY 0” value is 50 pg/mL and 88 pg/mL. Also, for the setting “5 ug/ml, listed as L, 2-CdG”, the “HBV DNA IN CULTURE MEDIUM DAY 3” value was 67 pg/mL and 110 pg/mL; the “HBV DNA IN CULTURE MEDIUM DAY 6” value is 77 pg/mL and 120 pg/mL; the “HBV DNA IN CULTURE MEDIUM DAY 10” value is 90 pg/mL and 120 pg/mL.

Values taken from patent EP0684822B1, “CARBOCYCLIC DEOXYGUANOSINE ANALOGS FOR THE TREATMENT OF VIRAL INFECTIONS” (SOUTHERN RESEARCH INSTITUTE, priority 1993, dated 1994).
